Source: patent US7101844B2, “Cytoplasmic transduction peptides and uses thereof” (Creagene, Inc., priority 2002, dated 2006)
“Also recorded” adds a separate entry of the source.

How the values were obtained:
Format in all cases: cell-based
HeLa cells [1] = test: Transduction of PTD- and CTP-β-galactosidase into HeLa cells (X-gal staining after fixation); conditions: for transduction potential / order of transduction potentials into HeLa cells: 100 μg/ml, 1 hr; for transduction potential: fixation; for order of transduction potentials into HeLa cells: β-galactosidase fusion, X-gal staining
Source text: Although various other substitutions could be performed, it is essential in this invention that the introduction of a positive charge by arginine and the substitution by an α-helix stabilizing amino acid should be carried out for maintaining the principle function of the PTD peptide. Therefore, as a substitute amino acid, the positively charged amino acid is restricted to arginine, and the negatively charged amino acid is restricted to glutamic acid. β-galactosidase was fused to the CTP candidate peptide, the fusion proteins were isolated and purified (see FIG. 2), and HeLa cells were treated with each of the fusion proteins. This was then followed by an analysis of the transduction potential and a determination of the extent of the cytoplasmic remaining property.
The transduction potential of the PTD and CTP candidates was tested with HeLa cells. Using a 24-well plate (Nunc), 5×10^4 HeLa cells were inoculated into high glucose DMEM (containing 10% FBS) and cultured for 36 hr. The cells were rinsed with PBS and treated with 100 μg/ml of PTD- and CTP-β-galactosidase in an opti-MEM I medium. After 1-hr incubation, cells were fixed for 10 min at room temperature with a fixation solution (2% formaldehyde, 0.2% glutaraldehyde in PBS). Then, the cells were rinsed twice with PBS, and stained for 2 hr with dye (0.1% X-gal, 5 mM potassium ferricyanide, 5 mM potassium ferrocyanide, 2 mM MgCl2 in PBS) to examine their transduction potential (see FIG. 3). The samples showing a low level of staining, even after a 2-hr staining, were incubated overnight, and then stained for the relative transduction potential. The transduction potentials of the PTD and CTP candidates into HeLa cells were seen to be in the following order: PTD5<CTP502<<CTP501=CTP506<CTP507<CTP505<CTP503=CTP504<CTP508=CTP510=MTS<CTP509<<PTD=CTP511<<CTP512.

HeLa cells [2] = test: Subcellular localization of CTP-β-gal by confocal scanning microscope; conditions: β-galactosidase fusion protein, 100 μg/ml, 1 hr
Source text: To select cytoplamic transduction peptides (CTPs) of interest, HeLa cells were transduced with CTP-β-galactosidase, and then examined under the confocal scanning microscope. Before the confocal analysis, cells were stained with mouse anti-β-galactosidase antibody and 2nd antibodies conjugated with FITC (Fluorescence-iso-thio-cyanate) or with PE (phycoerythrin) together with DNA staining reagent (green fluorescence SYTO-16 DNA staining dye, Molecular Probe). First, HeLa cells (5×10^5 cells/ml) were plated onto a 6-well plate containing sterilized cover-slips and cultured overnight at 37° C. CO2 incubator. The cells were washed with PBS (pH 7.4) and 1 ml of an OPTI-MEM I medium was added, followed by treatment with candidate CTP-fused proteins (100 μg/ml). As a positive control, PTD-β-galactosidase fusion protein was employed, and as a negative control, only β-galactosidase protein was used. Following the treatment with candidate CTP-β-galactosidase fusion proteins, cells were incubated for 1 hr at 37° C. incubator. The cells were rinsed three times with PBS and fixed with 2% paraformaldehyde for 20 min at 4° C. HeLa cells fixed were washed twice with washing buffer (PBS containing 0.2% BSA and 0.02% sodium azide). To stain the cells with antibody, cells were pre-treated with 0.5% Triton X-100 (in PBS, Sigma) at 4° C. for 20 min. Cells were washed three times with washing buffer and then stained with mouse anti-β-galactosidase antibody (diluted 1:2,000, Sigma) for 1 hr at 4° C. as a primary antibody and then washed three times with washing buffer. Cells were then incubated with FITC-conjugated goat anti-mouse IgG (diluted 1:2,000, Jackson Laboratory) as a secondary antibody for 20 min at 4° C. Washed 3 times with the same washing buffer, cells were fixed on a slide glass with fluorescence mounting medium (DAKO) and the edge of slide glass was sealed with nail vanish.
Double staining was carried out with SYTO-16 DNA staining dye as follows: First, the cells were incubated with the primary antibodies under the same conditions and rinsed three times. Then, the cells were incubated at 4° C. for 20 min with PE-conjugated goat anti-mouse IgG PE (diluted 1:2,000, Jackson Laboratory). Washed three times with washing buffer, cells were incubated with SYTO-16 DNA staining dye (diluted 1:1,000, DAKO) for 20 min at 4° C. Cells were fixed and sealed on a slide glass and then examined under a confocal laser scanning microscope.
In the present experiment, LEICA TCS NT SP confocal microscope (LEICA Lasertech GmbH, Heidelverg, Germany) was employed, which was equipped with lager generator of argon (Ar) and krypton (Kr), scanning device, and filter capable of detecting FITC (510–550 nm) and PE (600–660) at independent channel. Photographs were taken by PL-APO X100 objective. For single staining, the cells were sectioned into 4-layers and fluorescence and transmission photographs were taken. For double staining, FITC, PE, and transmission photographs were taken using optimal respective filter.

HeLa cells [3] = test: Subcellular localization of CTP-FITC by confocal microscope without cell fixation; conditions: FITC-labeled peptide, 25 μg/ml, 1 hr
Source text: Fixation step is inevitable for examining the subcellular localization of the transduced β-gal in the cells with antibodies. However, according to the previous reports, the fusion protein attached to cell surface is very likely to be introduced into the cell during a cell fixation procedure, which may affect its transduction potential and its subcellular localization. However, FITC-labeled membrane permeation peptides allow its subcellular localization to be observed under a confocal microscope without cell fixation. Monolayered HeLa cells were treated for 1 hr with FITC-labeled CTP, PTD or MTS at a concentration of 25 μg/ml, and washed three times with HBSS, followed by observation under a confocal microscope without cell fixation.

[4] = β-galactosidase fusion protein, HeLa cells

Substance | transduction potential (HeLa cells [1]; [4]) | order of transduction potentials into HeLa cells (HeLa cells [1]) | transduction potential as percentage of wild type PTD fusion protein (HeLa cells [1]; [4]) | transduction potential higher than PTD5 (HeLa cells [1]; [4]) | cytoplasmic remaining property / subcellular localization (HeLa cells [2]) | subcellular localization (HeLa cells [3])
CTP501: CTP candidate (1P), sequence PARAARRAARR | low-potential | CTP502<<CTP501=CTP506 |  |  |  | 
CTP502: CTP candidate (2P), sequence YPRAARRAARR | low-potential | PTD5<CTP502<<CTP501 |  |  |  | 
CTP503: CTP candidate (2R11A), sequence YRRAARRAARA | excellent transduction potential | CTP505<CTP503=CTP504 |  |  |  | 
CTP504: CTP candidate (2G), sequence YGRAARRAARR | excellent transduction potential | CTP503=CTP504<CTP508 | 10% | 20 fold | high cytoplasmic remaining property | 
CTP505: CTP candidate (4E), sequence YAREARRAARR | excellent transduction potential | CTP507<CTP505<CTP503 |  |  |  | 
CTP506: CTP candidate (2E4E), sequence YEREARRAARR | low-potential | CTP501=CTP506<CTP507 |  |  |  | 
CTP507: CTP candidate (2K), sequence YKRAARRAARR | low-potential; also recorded: excellent transduction potential | CTP506<CTP507<CTP505 |  |  |  | 
CTP508: CTP candidate (4K), sequence YARKARRAARR | excellent transduction potential; also recorded: transduction potential lower than wild type PTD; also recorded: significantly high transduction potential | CTP504<CTP508=CTP510=MTS | 20% |  | much stronger cytoplasmic remaining property than PTD; also recorded: much higher than the wild type PTD; also recorded: significantly high | observed only in the cytoplasm, and not in the nucleus
CTP509: CTP candidate (2K4K), sequence YKRKARRAARR | transduction potential higher than CTP508; also recorded: transduction potential lower than wild type PTD; also recorded: significantly high transduction potential | MTS<CTP509<<PTD |  |  | much stronger cytoplasmic remaining property than PTD; also recorded: much higher than the wild type PTD; also recorded: significantly high | 
CTP510: CTP candidate (2G4R), sequence YGRRARRAARR |  | CTP508=CTP510=MTS |  |  |  | 
YGRKKRRQRRR [PTD, protein transduction domain of HIV-1 Tat protein, reference compound] |  | CTP509<<PTD=CTP511 |  |  |  | FITC signal only in the nucleus, but not in the cytoplasm
